The results in this text go back to patent publication US20230286946A1, “DIFLUOROMETHYL-PYRIDIN-2-YL TRIAZOLES” (Boehringer Ingelheim International GmbH, priority 2020, published 2023).

Structures are written as SMILES.

In data set [1] the test system is human MDR1 P-gp. As to the kind of experiment: Assessment of efflux in MDCK cells transfected with the human MDR1 gene. The class given is in vitro ADME, canine. The conditions noted are these: dog, pH 7.4, 37° C.; for Papp A→B: apical-to-basal, read-out: MDCK-PGP A-B; for efflux ratio: read-out: MDCK-PGP Efflux ratio [PEBA/PEAB]. As to the method:
Assessment of efflux in Madin-Darby canine kidney (MDCK) cells transfected with the human MDR1 gene to assess brain penetration (Drug Metabolism and Disposition February 2008, 36 (2) 268-275; DOI: https://doi.org/10.1124/dmd.107.017434)
Apparent permeability coefficients (PE) of the compounds across the MDCK-MDR1 cell monolayers are measured (pH 7.4, 37° C.) in apical-to-basal (AB) and basal-to-apical (BA) transport direction. AB permeability (PEAB) represents drug absorption from the blood into the 35 brain and BA permeability (PEBA) drug efflux from the brain back into the blood via both passive permeability as well as active transport mechanisms mediated by efflux and uptake transporters that are expressed on the MDCK-MDR1 cells, predominantly by the overexpressed human MDR1 P-gp. The compounds are assigned to permeability/absorption classes by comparison of the AB permeabilities with the AB permeabilities of reference compounds with known in vitro permeability and oral absorption in the human. Identical or similar permeabilities in both transport directions indicate passive permeation, vectorial permeability points to additional active transport mechanisms. Higher PEBA than PEAB indicates the involvement of active efflux mediated by MDR1 P-gp. Active transport is concentration-dependently saturable.
MDCK-MDR1 cells (1-2×10e5 cells/1 cm2 area) are seeded on filter inserts (Costar transwell polycarbonate or PET filters, 0.4 μm pore size) and cultured (DMEM) for 7 days. Subsequently, the MDR1 expression is boosted by culturing the cells with 5 mM sodium butyrate in full medium for 2 days. Compounds are dissolved in appropriate solvent (like DMSO, 1-20 mM stock solutions). Stock solutions are diluted with HTP-4 buffer (128.13 mM NaCl, 5.36 mM KCl, 1 mM MgSO4, 1.8 mM CaCl2, 4.17 mM NaHCO3, 1.19 mM Na2HPO4×7H2O, 0.41 mM NaH2PO4×H2O, 15 mM HEPES, 20 mM glucose, 0.25% BSA, pH 7.4) to prepare the transport solutions (0.1-300 μM compound, final DMSO <=0.5%). The transport solution (TL) is applied to the apical or basolateral donor side for measuring A-B or B-A permeability (3 filter replicates), respectively. The receiver side contains the same buffer as the donor side. Samples are collected at the start and end of experiment from the donor and at various time intervals for up to 2 hours also from the receiver side for concentration measurement by HPLC-MS/MS or scintillation counting. Sampled receiver volumes are replaced with fresh receiver solution.

Data set [2] addresses T1, α5ß2 γ2 GABAA Receptor (Homo sapiens, UniProt P18507+P31644).
T1 sequence (P31644 32-462): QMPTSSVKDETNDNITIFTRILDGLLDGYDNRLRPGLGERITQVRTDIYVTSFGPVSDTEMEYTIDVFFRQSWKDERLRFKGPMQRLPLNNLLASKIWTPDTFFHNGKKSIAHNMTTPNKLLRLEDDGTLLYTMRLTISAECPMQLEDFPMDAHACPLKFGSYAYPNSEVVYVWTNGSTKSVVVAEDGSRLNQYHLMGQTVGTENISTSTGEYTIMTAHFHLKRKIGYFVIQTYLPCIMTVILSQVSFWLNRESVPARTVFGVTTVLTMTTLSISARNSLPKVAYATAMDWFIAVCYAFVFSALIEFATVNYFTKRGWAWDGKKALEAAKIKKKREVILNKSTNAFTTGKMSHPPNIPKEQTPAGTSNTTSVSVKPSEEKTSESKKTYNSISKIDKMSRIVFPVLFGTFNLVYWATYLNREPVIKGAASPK
T1 sequence (P18507 40-376 limits assumed): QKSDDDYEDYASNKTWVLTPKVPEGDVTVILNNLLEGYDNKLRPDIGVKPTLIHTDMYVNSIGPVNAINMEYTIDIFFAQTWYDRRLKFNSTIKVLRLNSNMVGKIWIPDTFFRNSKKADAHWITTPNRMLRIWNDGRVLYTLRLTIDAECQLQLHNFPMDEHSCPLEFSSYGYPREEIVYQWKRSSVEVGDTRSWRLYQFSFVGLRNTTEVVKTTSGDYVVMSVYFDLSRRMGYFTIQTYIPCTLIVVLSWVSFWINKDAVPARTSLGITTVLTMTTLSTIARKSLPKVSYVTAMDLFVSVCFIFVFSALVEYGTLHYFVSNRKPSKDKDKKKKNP
As to the kind of experiment: Assay B: in vitro evaluation of modulation of α5ß2γ2 GABAA receptor, two-electrode voltage clamp in oocytes. The class given is cell-based. The conditions noted are these: for EC50: co-application with 0.5 μM GABA, oocytes, read-out: Assay B: GABAA α 5 β 3 γ 2 EC50. As to the method: Assay B: In Vitro Evaluation of Modulation of α5ß2 γ2 GABAA Receptor.
Modulatory efficacy of compounds of formular (I) is determined electrophysiological recordings in oocytes using the two-electrode voltage clamp (TEVC) technique. Oocytes are injected with cRNA for human GABAA receptor subunits α5, ß2 and γ2 in a 3:1:3 ratio and modulatory efficacy is evaluated by co-applications with a submaximal EC5-20 GABA concentration (0.5 μM) termed GABA control. As a standard, the compounds are tested in five concentrations (3.16, 0.316, 0.0316, 0.00316 and 0.000316 μM) on each oocyte starting with the lowest concentration. Background subtracted peak current amplitudes are normalized to the respective GABAcontrol current, converted to % change and depicted +/−S.E.M. as a function of increasing compound concentrations. Plotted datapoints are fitted to the empirical Hill equation using non-linear regression. 95% confidence intervals for maximal efficacy (Bottom) and potency (Log EC50) are derived from this fitting routine.
For orientation: Two-electrode voltage clamp holds a large cell at a set potential and records current.

A word on the EC50: it is the concentration that produces a half-maximal response. With `Cn1nnc(-c2ccc(C(F)F)cn2)c1COc1ccc(-c2cn[nH]c2)nn1` [Example 24], in data set [1], the Papp A→B came to 10 ×10⁻⁶ cm/s and the efflux ratio was determined as 6.6. Further, in data set [2], the Assay B: GABAA α 5 β 3 γ 2 Emax vs GABA is -14.7% and the EC50 is 9.8 nM.

Turning to `Cn1nnc(-c2ccc(C(F)F)cn2)c1COc1ccc(-c2cccc(C(N)=O)c2)nn1` [Example 28], in data set [1], the Papp A→B amounted to 3 ×10⁻⁶ cm/s and the efflux ratio was found to be 17.2. Also, in data set [2], the Assay B: GABAA α 5 β 3 γ 2 Emax vs GABA was -20% and the EC50 came out at 14.6 nM.

Regarding `Cc1nnn(-c2ccc(C(F)F)cn2)c1COc1ccc(-n2cc(C#N)cn2)nn1` [Example 37], in data set [1], the Papp A→B is 59 ×10⁻⁶ cm/s and the efflux ratio was found to be 0.4. In data set [2], the Assay B: GABAA α 5 β 3 γ 2 Emax vs GABA was -25.3% and the EC50 was 37.3 nM.

On to `Cc1nnn(-c2ccc(C(F)F)cn2)c1COc1ccc(-n2ncnc2C)nn1` [Example 38], for which, in data set [1], the Papp A→B came to 86 ×10⁻⁶ cm/s and the efflux ratio amounted to 0.5. Also, in data set [2], the Assay B: GABAA α 5 β 3 γ 2 Emax vs GABA is -22.5% and the EC50 came to 22.8 nM.

For the compound `Cn1nnc(-c2ccc(C(F)F)cn2)c1COc1ccc(-c2cnccn2)nn1` [Example 39], in data set [1], the Papp A→B was found to be 59 ×10⁻⁶ cm/s and the efflux ratio stood at 0.6. For the same compound, in data set [2], the Assay B: GABAA α 5 β 3 γ 2 Emax vs GABA is -24.6% and the EC50 was 354 nM.

With `Cc1nnn(-c2ccc(C(F)F)cn2)c1COc1ccc(-n2cnc(C#N)c2)nn1` [Example 42, 1-[6-({1-[5-(difluoromethyl)pyridin-2-yl]-4-methyl-1H-1,2,3-triazol-5-yl}methoxy)pyridazin-3-yl]-1H-imidazole-4-carbonitrile], in data set [1], the Papp A→B stood at 24 ×10⁻⁶ cm/s and the efflux ratio came out at 1.4. In data set [2], the Assay B: GABAA α 5 β 3 γ 2 Emax vs GABA is -25% and the EC50 is 15.8 nM.

Take `Cc1nnn(-c2ccc(C(F)F)cn2)c1COc1ccc(-n2nccn2)nn1` [Example 43]: in data set [1], the Papp A→B was found to be 54 ×10⁻⁶ cm/s and the efflux ratio was 0.7. Besides, in data set [2], the Assay B: GABAA α 5 β 3 γ 2 Emax vs GABA is -20.2% and the EC50 was found to be 24.8 nM.

Consider `Cc1ncnn1-c1ccc(OCc2c(-c3ccc(C(F)F)cn3)nnn2C)nn1` [Example 48, 3-({4-[5-(difluoromethyl)pyridin-2-yl]-1-methyl-1H-1,2,3-triazol-5-yl}methoxy)-6-(5-methyl-1H-1,2,4-triazol-1-yl)pyridazine], for which, in data set [1], the Papp A→B came out at 69 ×10⁻⁶ cm/s and the efflux ratio worked out at 0.8. For the same compound, in data set [2], the Assay B: GABAA α 5 β 3 γ 2 Emax vs GABA was -13.2% and the EC50 was determined as 78.9 nM.

On to `Cn1nnc(-c2ccc(C(F)F)cn2)c1COc1ccc(-n2cnc(C#N)c2)nn1` [Example 52], for which, in data set [1], the Papp A→B worked out at 18 ×10⁻⁶ cm/s and the efflux ratio is 2.7. For the same compound, in data set [2], the Assay B: GABAA α 5 β 3 γ 2 Emax vs GABA is -16% and the EC50 turned out to be 2 nM.

For the compound `Cc1nnn(-c2ccc(C(F)F)cn2)c1COc1ccc(-c2cnccn2)nn1` [Example 56, 3-({1-[5-(difluoromethyl)pyridin-2-yl]-4-methyl-1H-1,2,3-triazol-5-yl}methoxy)-6-(pyrazin-2-yl)pyridazine], in data set [1], the Papp A→B worked out at 58 ×10⁻⁶ cm/s and the efflux ratio was found to be 0.6. Besides, in data set [2], the Assay B: GABAA α 5 β 3 γ 2 Emax vs GABA was -17.7% and the EC50 was determined as 14.5 nM.
